Laboratory results reported in ChEMBL document CHEMBL1138060, “3-arylimino-2-indolones are potent and selective galanin GAL3 receptor antagonists” (J Med Chem, 2006).
One block for each molecule: values may come before it. Activity calls are given as the source filed them. No cut-off for these calls is given here.

Assays:
Galanin receptor type 3 = biological target: T1, Galanin receptor type 3 (Homo sapiens, UniProt O60755); assay: Displacement of [125I]galanin from human GAL3
T1 sequence (O60755 whole entry): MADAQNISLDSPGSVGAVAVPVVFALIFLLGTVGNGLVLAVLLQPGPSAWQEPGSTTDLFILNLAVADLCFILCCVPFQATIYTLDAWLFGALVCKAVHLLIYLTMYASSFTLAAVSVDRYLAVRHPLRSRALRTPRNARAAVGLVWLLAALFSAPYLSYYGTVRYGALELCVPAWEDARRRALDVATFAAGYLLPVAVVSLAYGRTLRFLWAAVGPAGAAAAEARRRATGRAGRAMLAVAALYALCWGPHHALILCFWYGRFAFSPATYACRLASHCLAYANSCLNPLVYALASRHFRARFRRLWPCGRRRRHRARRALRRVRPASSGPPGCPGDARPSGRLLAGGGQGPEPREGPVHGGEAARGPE

[1] = Drug level in rat plasma at 10 mg/kg, pp after 2 hrs; assay type: ADME, organism-based; parameters: dose 10 mg/kg
[2] = Drug level in rat brain at 10 mg/kg, sc after 2 hrs; assay type: ADME, organism-based; parameters: dose 10 mg/kg, route subcutaneous; conditions: read-out: Drug uptake
[3] = Drug level in rat plasma at 10 mg/kg, sc after 2 hrs; assay type: ADME, organism-based; parameters: dose 10 mg/kg, route subcutaneous
[4] = Drug level in rat plasma at 30 mg/kg, ip after 2 hrs; assay type: ADME, organism-based; parameters: dose 30 mg/kg, route intraperitoneal
[5] = Drug level in rat brain at 30 mg/kg, ip after 2 hrs; assay type: ADME, organism-based; parameters: dose 30 mg/kg, route intraperitoneal; conditions: read-out: Drug uptake
[6] = Drug level in rat plasma at 30 mg/kg, ip after 4 hrs; assay type: ADME, organism-based; parameters: dose 30 mg/kg, route intraperitoneal
[7] = Drug level in rat brain at 30 mg/kg, ip after 4 hrs; assay type: ADME, organism-based; parameters: dose 30 mg/kg, route intraperitoneal; conditions: read-out: Drug uptake
[8] = biological target: T2, 5-hydroxytryptamine receptor 4 (Homo sapiens, UniProt Q13639); assay: Binding affinity to human 5HT4
T2 sequence (Q13639 whole entry): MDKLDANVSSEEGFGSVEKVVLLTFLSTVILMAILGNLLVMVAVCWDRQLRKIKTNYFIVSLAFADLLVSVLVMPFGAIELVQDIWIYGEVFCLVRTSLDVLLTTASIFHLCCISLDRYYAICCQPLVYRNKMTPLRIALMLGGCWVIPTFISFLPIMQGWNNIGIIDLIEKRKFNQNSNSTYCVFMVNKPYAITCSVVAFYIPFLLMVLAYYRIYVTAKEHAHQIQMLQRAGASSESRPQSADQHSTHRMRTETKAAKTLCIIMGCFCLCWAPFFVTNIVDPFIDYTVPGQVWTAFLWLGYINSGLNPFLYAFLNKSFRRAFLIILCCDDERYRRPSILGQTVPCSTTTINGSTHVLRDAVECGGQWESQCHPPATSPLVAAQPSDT

[9] = biological target: T2, 5-hydroxytryptamine receptor 4; assay: Agonist activity at human 5HT4 upto 10 uM; assay type: functional
[10] = biological target: T2, 5-hydroxytryptamine receptor 4; assay: Antagonist activity against human 5HT4 upto 10 uM; assay type: functional

Ki (Galanin receptor type 3): 89 nM
Compound: C#CCN1C(=O)/C(=N/c2cccc(C(F)(F)F)c2)c2ccccc21

Ki (Galanin receptor type 3): 596 nM
Compound: O=C1Nc2ccccc2/C1=N\c1cccc(C(F)(F)F)c1

Ki (Galanin receptor type 3): > 10000 nM
Compound: COc1ccc(/N=C2/C(=O)Nc3ccccc32)cc1

The next lines start with the molecule.

Compound: O=C1Nc2ccccc2/C1=N\c1ccc(Cl)cc1
Ki (Galanin receptor type 3): 850 nM

Compound: O=C1/C(=N/c2cccc(C(F)(F)F)c2)c2ccccc2N1c1ccccc1
concentration at 2 h [1]: 90 ng/mL | concentration at 2 h [2]: 350 ng/g | concentration at 2 h [3]: 990 ng/mL | concentration at 2 h [4]: 780 ng/mL | concentration at 2 h [5]: 1060 ng/g | concentration at 4 h [6]: 1680 ng/mL | concentration at 4 h [7]: 1210 ng/g | Ki [8]: 72 nM | Activity [9]: inactive | Activity [10]: inactive

Compound: C=CCN1C(=O)/C(=N/c2ccc(Cl)c(Cl)c2)c2ccccc21
Ki (Galanin receptor type 3): 150 nM

Compound: O=C1Nc2ccccc2/C1=N\c1cccc(Cl)c1Cl
Ki (Galanin receptor type 3): 437 nM

Compound: CCC(CC)N1C(=O)/C(=N/c2ccc(C(F)(F)F)cc2)c2ccccc21
Ki (Galanin receptor type 3): 52 nM
